Laboratory results taken from patent US20230072683A1, “PYRIDO-PYRIMIDIN DERIVATIVES AND PHARMACEUTICAL COMPOSITION, FOR USE IN PREVENTING OR TREATING PI3 KINASE RELATED DISEASES, COMPRISING SAME AS ACTIVE INGREDIENT” (BORYUNG PHARMACEUTICAL CO., LTD, priority 2019, published 2023).

Experiments:
[1] = target: PI3K-δ (PI3K(p1108/p857) (h)) (Homo sapiens, UniProt O00329); assay: Evaluation of inhibitory activity against PI3K-δ (HTRF kinase assay); type: biochemical; conditions: compound concentration 0.01 μM; read-out: EXP_VALUE(% Inhibition) PI3K-δ 0.01 μM
Sequence of PI3K-δ (PI3K(p1108/p857) (h)) (O00329 whole entry, the tested form may be a part): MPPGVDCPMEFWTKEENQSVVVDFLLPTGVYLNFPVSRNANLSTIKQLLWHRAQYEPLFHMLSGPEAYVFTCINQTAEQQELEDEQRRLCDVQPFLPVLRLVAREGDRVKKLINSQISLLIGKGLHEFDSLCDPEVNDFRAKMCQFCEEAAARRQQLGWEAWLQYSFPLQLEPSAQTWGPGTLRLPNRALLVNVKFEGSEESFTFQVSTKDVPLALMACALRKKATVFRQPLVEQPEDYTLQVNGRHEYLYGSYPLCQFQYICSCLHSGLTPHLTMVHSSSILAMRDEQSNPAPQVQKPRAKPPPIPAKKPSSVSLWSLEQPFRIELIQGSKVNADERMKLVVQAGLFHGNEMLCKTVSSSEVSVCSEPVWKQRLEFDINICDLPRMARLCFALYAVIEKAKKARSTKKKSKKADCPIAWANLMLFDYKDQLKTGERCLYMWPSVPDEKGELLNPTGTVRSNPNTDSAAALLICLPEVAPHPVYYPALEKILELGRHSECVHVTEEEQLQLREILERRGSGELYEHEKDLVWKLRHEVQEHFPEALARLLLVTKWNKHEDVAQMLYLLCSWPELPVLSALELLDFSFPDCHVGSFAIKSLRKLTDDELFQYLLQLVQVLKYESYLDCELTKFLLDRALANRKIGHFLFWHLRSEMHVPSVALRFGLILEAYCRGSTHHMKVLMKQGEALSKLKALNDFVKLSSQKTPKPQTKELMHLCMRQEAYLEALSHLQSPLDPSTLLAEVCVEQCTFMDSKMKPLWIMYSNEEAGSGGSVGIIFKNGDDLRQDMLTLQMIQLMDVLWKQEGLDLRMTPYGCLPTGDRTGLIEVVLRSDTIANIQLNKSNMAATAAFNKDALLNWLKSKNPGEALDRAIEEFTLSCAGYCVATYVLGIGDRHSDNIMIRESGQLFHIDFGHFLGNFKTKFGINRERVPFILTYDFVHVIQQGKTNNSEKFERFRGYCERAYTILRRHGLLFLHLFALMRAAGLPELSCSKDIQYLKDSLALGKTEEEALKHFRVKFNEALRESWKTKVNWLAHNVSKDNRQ
Sequence of PI3K-δ (PI3K(p1108/p857) (h)) (P27986 whole entry partner, the tested form may be a part): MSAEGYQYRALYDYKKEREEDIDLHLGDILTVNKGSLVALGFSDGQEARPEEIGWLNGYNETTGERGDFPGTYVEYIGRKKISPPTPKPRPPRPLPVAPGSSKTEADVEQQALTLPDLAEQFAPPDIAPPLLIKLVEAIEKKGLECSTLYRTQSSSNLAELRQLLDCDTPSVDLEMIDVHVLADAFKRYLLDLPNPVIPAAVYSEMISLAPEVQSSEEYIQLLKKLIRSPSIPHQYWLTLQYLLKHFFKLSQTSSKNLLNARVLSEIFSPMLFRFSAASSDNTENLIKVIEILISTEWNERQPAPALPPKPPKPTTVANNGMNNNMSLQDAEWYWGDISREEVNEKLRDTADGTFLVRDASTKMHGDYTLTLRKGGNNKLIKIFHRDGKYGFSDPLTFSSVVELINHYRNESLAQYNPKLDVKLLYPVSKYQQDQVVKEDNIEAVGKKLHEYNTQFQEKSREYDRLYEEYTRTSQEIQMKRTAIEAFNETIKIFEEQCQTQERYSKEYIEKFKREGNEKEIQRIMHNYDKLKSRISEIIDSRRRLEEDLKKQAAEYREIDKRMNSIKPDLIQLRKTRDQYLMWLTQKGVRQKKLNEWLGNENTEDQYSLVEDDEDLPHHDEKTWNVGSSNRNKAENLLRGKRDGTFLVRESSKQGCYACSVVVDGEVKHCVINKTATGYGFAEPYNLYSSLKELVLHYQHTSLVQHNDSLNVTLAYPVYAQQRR
How it was run: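 HTRF read-out (665/620 nm ratio ×10000) used Eu-labelled anti-GST, GST-tagged GRP1 PH domain and streptavidin-allophycocyanin after EDTA/PIP3 stop.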

DNA-PK(h) = DNA-PK(h) (Homo sapiens, UniProt P78527); assay: Evaluation of inhibitory activity against DNA-PK (HTRF kinase assay, GST-cMyc-p53 substrate); type: biochemical; conditions: compound concentration 0.01 μM; read-out: EXP_VALUE(% Inhibition) DNA-PK(h) 0.01 μM
How it was run: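 p53 Ser15 phosphorylation by human DNA-PK was measured by time-resolved FRET ratio (665/620 nm ×10000) using Eu-labelled anti-phospho-Ser15 and d2 anti-GST antibodies. Substrate GST-cMyc-p53 at 50 μM; Mg/ATP-initiated, 30 min at room temperature, EDTA stop.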

Structure (SMILES) | inhibition at 0.01 µM [1] [%] | inhibition at 0.01 µM (DNA-PK(h)) [%]
C[C@H](Nc1ncnc2[nH]ccc(=O)c12)c1c(Cl)c2cccc(-c3cnc(C(C)(C)C)nc3)c2c(=O)n1-c1ccccc1 [Example 208, (S)-4-((1-(8-(2-(tert-butyl)pyrimidin-5-yl)-4-chloro-1-oxo-2-phenyl-1,2-dihydroisoquinolin-3-yl)ethyl)amino)pyrido[2,3-d]pyrimidin-5(8H)-one] | 68 | 58
C[C@H](Nc1ncnc2[nH]ccc(=O)c12)c1c(Cl)c2cccc(-c3cncc(N4CCOCC4)n3)c2c(=O)n1-c1ccccc1 [Example 210, (S)-4-((1-(4-chloro-8-(6-morpholinopyrazin-2-yl)-1-oxo-2-phenyl-1,2-dihydroisoquinolin-3-yl)ethyl)amino)pyrido[2,3-d]pyrimidin-5(8H)-one] | 73 | 56
Cc1nc(N)ncc1-c1cccc2c(Cl)c([C@H](C)Nc3ncnc4[nH]ccc(=O)c34)n(-c3ccccc3)c(=O)c12 [Example 212, (S)-4-((1-(8-(2-amino-4-methylpyrimidin-5-yl)-4-chloro-1-oxo-2-phenyl-1,2-dihydroisoquinolin-3-yl)ethyl)amino)pyrido[2,3-d]pyrimidin-5(8H)-one] | 94 | 57
C[C@H](Nc1ncnc2[nH]ccc(=O)c12)c1c(Cl)c2cccc(-c3cnc(N4CCN(C)CC4)nc3)c2c(=O)n1-c1ccccc1 [Example 216, (S)-4-((1-(4-chloro-8-(2-(4-methylpiperazin-1-yl)pyrimidin-5-yl)-1-oxo-2-phenyl-1,2-dihydroisoquinolin-3-yl)ethyl)amino)pyrido[2,3-d]pyrimidin-5(8H)-one] | 96 | 75
C[C@H](Nc1ncnc2[nH]ccc(=O)c12)c1c(Cl)c2cccc(-c3cncc(S(C)(=O)=O)c3)c2c(=O)n1-c1ccccc1 [Example 218, (S)-4-((1-(4-chloro-8-(5-(methylsulfonyl)pyridin-3-yl)-1-oxo-2-phenyl-1,2-dihydroisoquinolin-3-yl)ethyl)amino)pyrido[2,3-d]pyrimidin-5(8H)-one] | 99 | 85
CC(C)Nc1ncc(-c2cccc3c(Cl)c([C@H](C)Nc4ncnc5[nH]ccc(=O)c45)n(-c4ccccc4)c(=O)c23)cn1 [Example 220, (S)-4-((1-(4-chloro-8-(2-(isopropylamino)pyrimidin-5-yl)-1-oxo-2-phenyl-1,2-dihydroisoquinolin-3-yl)ethyl)amino)pyrido[2,3-d]pyrimidin-5(8H)-one] | 87 | 73
C[C@H](Nc1ncnc2[nH]ccc(=O)c12)c1c(Cl)c2cccc(-c3ccc(OC(F)(F)F)nc3)c2c(=O)n1-c1ccccc1 [Example 223, (S)-4-((1-(4-chloro-1-oxo-2-phenyl-8-(6-(trifluoromethoxy)pyridin-3-yl)-1,2-dihydroisoquinolin-3-yl)ethyl)amino)pyrido[2,3-d]pyrimidin-5(8H)-one] | 68 | 34
C[C@H](Nc1ncnc2[nH]ccc(=O)c12)c1c(Cl)c2cccc(-c3cc[nH]n3)c2c(=O)n1-c1ccccc1 [Example 226, (S)-4-((1-(4-chloro-1-oxo-2-phenyl-8-(1H-pyrazol-3-yl)-1,2-dihydroisoquinolin-3-yl)ethyl)amino)pyrido[2,3-d]pyrimidin-5(8H)-one] | 83 | 56
C[C@H](Nc1ncnc2[nH]ccc(=O)c12)c1c(Cl)c2cccc(-c3cn[nH]c3)c2c(=O)n1-c1ccccc1 [Example 227, (S)-4-((1-(4-chloro-1-oxo-2-phenyl-8-(1H-pyrazol-4-yl)-1,2-dihydroisoquinolin-3-yl)ethyl)amino)pyrido[2,3-d]pyrimidin-5(8H)-one] | 93 | 73

The remaining lines, values ahead:

inhibition at 0.01 µM [1] [%] | inhibition at 0.01 µM (DNA-PK(h)) [%] | Structure (SMILES)
67 | 77 | CC(C)S(=O)(=O)c1ccc(-c2cccc3c(Cl)c([C@H](C)Nc4ncnc5[nH]ccc(=O)c45)n(-c4ccccc4)c(=O)c23)cc1 [Example 209, (S)-4-((1-(4-chloro-8-(4-(isopropylsulfonyl)phenyl)-1-oxo-2-phenyl-1,2-dihydroisoquinolin-3-yl)ethyl)amino)pyrido[2,3-d]pyrimidin-5(8H)-one]
80 | 55 | C[C@H](Nc1ncnc2[nH]ccc(=O)c12)c1c(Cl)c2cccc(-c3cnc(N4CCN(C)CC4)cn3)c2c(=O)n1-c1ccccc1 [Example 211, (S)-4-((1-(4-chloro-8-(5-(4-methylpiperazin-1-yl)pyrazin-2-yl)-1-oxo-2-phenyl-1,2-dihydroisoquinolin-3-yl)ethyl)amino)pyrido[2,3-d]pyrimidin-5(8H)-one]
98 | 69 | C[C@H](Nc1ncnc2[nH]ccc(=O)c12)c1c(Cl)c2cccc(-c3cnc4ccccc4c3)c2c(=O)n1-c1ccccc1 [Example 213, (S)-4-((1-(4-chloro-1-oxo-2-phenyl-8-(quinolin-3-yl)-1,2-dihydroisoquinolin-3-yl)ethyl)amino)pyrido[2,3-d]pyrimidin-5(8H)-one]
99 | 70 | CSc1ncc(-c2cccc3c(Cl)c([C@H](C)Nc4ncnc5[nH]ccc(=O)c45)n(-c4ccccc4)c(=O)c23)cn1 [Example 214, (S)-4-((1-(4-chloro-8-(2-(methylthio)pyrimidin-5-yl)-1-oxo-2-phenyl-1,2-dihydroisoquinolin-3-yl)ethyl)amino)pyrido[2,3-d]pyrimidin-5(8H)-one]
73 | 44 | CC(C)c1ncncc1-c1cccc2c(Cl)c([C@H](C)Nc3ncnc4[nH]ccc(=O)c34)n(-c3ccccc3)c(=O)c12 [Example 215, (S)-4-((1-(4-chloro-8-(4-isopropylpyrimidin-5-yl)-1-oxo-2-phenyl-1,2-dihydroisoquinolin-3-yl)ethyl)amino)pyrido[2,3-d]pyrimidin-5(8H)-one]
71 | 66 | CCN(CC)c1ncc(-c2cccc3c(Cl)c([C@H](C)Nc4ncnc5[nH]ccc(=O)c45)n(-c4ccccc4)c(=O)c23)cn1 [Example 217, (S)-4-((1-(4-chloro-8-(2-(diethylamino)pyrimidin-5-yl)-1-oxo-2-phenyl-1,2-dihydroisoquinolin-3-yl)ethyl)amino)pyrido[2,3-d]pyrimidin-5(8H)-one]
97 | 82 | C[C@H](Nc1ncnc2[nH]ccc(=O)c12)c1c(Cl)c2cccc(-c3ccc(S(C)(=O)=O)nc3)c2c(=O)n1-c1ccccc1 [Example 219, (S)-4-((1-(4-chloro-8-(6-(methylsulfonyl)pyridin-3-yl)-1-oxo-2-phenyl-1,2-dihydroisoquinolin-3-yl)ethyl)amino)pyrido[2,3-d]pyrimidin-5(8H)-one]
67 | 27 | COc1cnc(-c2cccc3c(Cl)c([C@H](C)Nc4ncnc5[nH]ccc(=O)c45)n(-c4ccccc4)c(=O)c23)cn1 [Example 221, (S)-4-((1-(4-chloro-8-(5-methoxypyrazin-2-yl)-1-oxo-2-phenyl-1,2-dihydroisoquinolin-3-yl)ethyl)amino)pyrido[2,3-d]pyrimidin-5(8H)-one]
75 | 55 | C[C@H](Nc1ncnc2[nH]ccc(=O)c12)c1c(Cl)c2cccc(-c3cnc(N4CCCC4)nc3)c2c(=O)n1-c1ccccc1 [Example 222, (S)-4-((1-(4-chloro-1-oxo-2-phenyl-8-(2-(pyrrolidin-1-yl)pyrimidin-5-yl)-1,2-dihydroisoquinolin-3-yl)ethyl)amino)pyrido[2,3-d]pyrimidin-5(8H)-one]
57 | 19 | C[C@H](Nc1ncnc2[nH]ccc(=O)c12)c1c(Cl)c2cccc(-c3cnc(N4CCCCC4)nc3)c2c(=O)n1-c1ccccc1 [Example 224, (S)-4-((1-(4-chloro-1-oxo-2-phenyl-8-(2-(piperidin-1-yl)pyrimidin-5-yl)-1,2-dihydroisoquinolin-3-yl)ethyl)amino)pyrido[2,3-d]pyrimidin-5(8H)-one]
74 | 76 | COc1ncc(-c2cccc3c(Cl)c([C@H](C)Nc4ncnc5[nH]ccc(=O)c45)n(-c4ccccc4)c(=O)c23)cc1NS(C)(=O)=O [Example 225, (S)—N-(5-(4-chloro-1-oxo-3-(1-((5-oxo-5,8-dihydropyrido[2,3-d]pyrimidin-4-yl)amino)ethyl)-2-phenyl-1,2-dihydroisoquinolin-8-yl)-2-methoxypyridin-3-yl)methanesulfonamide]
88 | 78 | CCNc1ncc(-c2cccc3c(Cl)c([C@H](C)Nc4ncnc5[nH]ccc(=O)c45)n(-c4ccccc4)c(=O)c23)cn1 [Example 228, (S)-4-((1-(4-chloro-8-(2-(ethylamino)pyrimidin-5-yl)-1-oxo-2-phenyl-1,2-dihydroisoquinolin-3-yl)ethyl)amino)pyrido[2,3-d]pyrimidin-5(8H)-one]
68 | 45 | COc1ncc(-c2cccc3c(Cl)c([C@H](C)Nc4ncnc5[nH]ccc(=O)c45)n(-c4ccccc4)c(=O)c23)cc1C#N [Example 229, (S)-5-(4-chloro-1-oxo-3-(1-((5-oxo-5,8-dihydropyrido[2,3-d]pyrimidin-4-yl)amino)ethyl)-2-phenyl-1,2-dihydroisoquinolin-8-yl)-2-methoxynicotinonitrile]
